Data as given in US20020026053A1, “Novel 3-(substituted) -2- indolinones compounds and use thereof as inhibitors of protein kinase activity” (priority 1997, published 2002).

Test system: FLK-1 receptor
Experiment: FLK-1 Assay (cellular/catalytic ELISA, VEGF-stimulated phosphotyrosine)
Assay type: cell-based
Parameters: concentration or dose not given beside the values
Settings: protocol P.110
Method in brief: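 Receptor phosphotyrosine ELISA: Flk-1-expressing NIH3T3 C7#3 cells, starved overnight in 0.1% FBS medium, received compound (1:200 final dilution, 0.5% DMSO) for 2 h at 37 °C, then VEGF. Anti-FLK-1-captured receptor was probed with anti-phosphotyrosine UB40 and peroxidase/ABTS read-out, relative to cells without compound.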

## Cc1c(Br)cc(Br)c2c1C(=Cc1cccc(Cl)c1)C(=O)N2 [10736/H06]
  Flk Kinase % Inhibition (P.110): 15.5%
